Reference: the NIST ThermoML archive (doi:10.1021/je400423u)
± gives the expanded uncertainty stated by the source.

Test: xn = mol fraction of the nth substance listed
Details: 101 kPa, Liquid; for mass density: Vibrating tube method; for viscosity: Falling or rolling sphere viscometry

CC(C)CO [2-methyl-1-propanol] + CCC(C)O
Details	mass density [kg/m3]	viscosity [mPa·s]
303.15 K, x2 = 0.1009	794.484 ± 0.12	–
303.15 K, x2 = 0.2	794.891 ± 0.12	–
303.15 K, x2 = 0.3008	795.309 ± 0.12	–
303.15 K, x2 = 0.4	795.723 ± 0.12	–
303.15 K, x2 = 0.5002	796.151 ± 0.13	–
303.15 K, x2 = 0.5999	796.585 ± 0.13	–
303.15 K, x2 = 0.7004	797.029 ± 0.13	–
303.15 K, x2 = 0.8007	797.475 ± 0.14	–
303.15 K, x2 = 0.9005	797.918 ± 0.14	–
308.15 K, x2 = 0.1009	790.501 ± 0.12	2.443 ± 0.019
308.15 K, x2 = 0.2	790.872 ± 0.12	2.386 ± 0.019
308.15 K, x2 = 0.3008	791.253 ± 0.12	2.337 ± 0.018
308.15 K, x2 = 0.4	791.633 ± 0.12	2.292 ± 0.018
308.15 K, x2 = 0.5002	792.024 ± 0.13	2.248 ± 0.018
308.15 K, x2 = 0.5999	792.423 ± 0.13	2.206 ± 0.018
308.15 K, x2 = 0.7004	792.831 ± 0.13	2.168 ± 0.017
308.15 K, x2 = 0.8007	793.242 ± 0.14	2.139 ± 0.017
308.15 K, x2 = 0.9005	793.65 ± 0.14	2.127 ± 0.017
313.15 K, x2 = 0.1009	786.45 ± 0.12	2.107 ± 0.017
313.15 K, x2 = 0.2	786.78 ± 0.12	2.053 ± 0.016
313.15 K, x2 = 0.3008	787.122 ± 0.12	2.005 ± 0.016
313.15 K, x2 = 0.4	787.465 ± 0.13	1.962 ± 0.016
313.15 K, x2 = 0.5002	787.818 ± 0.13	1.92 ± 0.015
313.15 K, x2 = 0.5999	788.177 ± 0.13	1.881 ± 0.015
313.15 K, x2 = 0.7004	788.546 ± 0.13	1.845 ± 0.015
313.15 K, x2 = 0.8007	788.917 ± 0.14	1.816 ± 0.015
313.15 K, x2 = 0.9005	789.288 ± 0.14	1.804 ± 0.015
318.15 K, x2 = 0.1009	782.34 ± 0.12	1.824 ± 0.014
318.15 K, x2 = 0.2	782.624 ± 0.12	1.772 ± 0.014
318.15 K, x2 = 0.3008	782.922 ± 0.13	1.727 ± 0.014
318.15 K, x2 = 0.4	783.222 ± 0.13	1.685 ± 0.013
318.15 K, x2 = 0.5002	783.533 ± 0.13	1.646 ± 0.013
318.15 K, x2 = 0.5999	783.848 ± 0.13	1.608 ± 0.013
318.15 K, x2 = 0.7004	784.171 ± 0.14	1.575 ± 0.013
318.15 K, x2 = 0.8007	784.497 ± 0.14	1.551 ± 0.013
318.15 K, x2 = 0.9005	784.827 ± 0.14	1.54 ± 0.013
323.15 K, x2 = 0.1009	778.155 ± 0.12	1.59 ± 0.013
323.15 K, x2 = 0.2	778.391 ± 0.13	1.544 ± 0.012
323.15 K, x2 = 0.3008	778.641 ± 0.13	1.5 ± 0.012
323.15 K, x2 = 0.4	778.895 ± 0.13	1.46 ± 0.012
323.15 K, x2 = 0.5002	779.158 ± 0.13	1.422 ± 0.011
323.15 K, x2 = 0.5999	779.423 ± 0.14	1.387 ± 0.011
323.15 K, x2 = 0.7004	779.696 ± 0.14	1.357 ± 0.011
323.15 K, x2 = 0.8007	779.974 ± 0.14	1.336 ± 0.011
323.15 K, x2 = 0.9005	780.258 ± 0.14	1.326 ± 0.011
328.15 K, x2 = 0.1009	773.896 ± 0.13	1.393 ± 0.011
328.15 K, x2 = 0.2	774.077 ± 0.13	1.35 ± 0.011
328.15 K, x2 = 0.3008	774.275 ± 0.13	1.309 ± 0.01
328.15 K, x2 = 0.4	774.479 ± 0.13	1.27 ± 0.01
328.15 K, x2 = 0.5002	774.689 ± 0.13	1.235 ± 0.0099
328.15 K, x2 = 0.5999	774.903 ± 0.14	1.204 ± 0.0098
328.15 K, x2 = 0.7004	775.122 ± 0.14	1.178 ± 0.0096
328.15 K, x2 = 0.8007	775.348 ± 0.14	1.161 ± 0.0095
328.15 K, x2 = 0.9005	775.581 ± 0.14	1.152 ± 0.0095
333.15 K, x2 = 0.1009	769.551 ± 0.13	1.225 ± 0.0097
333.15 K, x2 = 0.2	769.674 ± 0.13	1.186 ± 0.0095
333.15 K, x2 = 0.3008	769.816 ± 0.13	1.148 ± 0.0093
333.15 K, x2 = 0.4	769.965 ± 0.13	1.112 ± 0.0091
333.15 K, x2 = 0.5002	770.119 ± 0.14	1.079 ± 0.0089
333.15 K, x2 = 0.5999	770.277 ± 0.14	1.051 ± 0.0087
333.15 K, x2 = 0.7004	770.441 ± 0.14	1.029 ± 0.0086
333.15 K, x2 = 0.8007	770.611 ± 0.14	1.014 ± 0.0086
333.15 K, x2 = 0.9005	770.793 ± 0.15	1.006 ± 0.0086
338.15 K, x2 = 0.1009	765.116 ± 0.13	1.082 ± 0.0088
338.15 K, x2 = 0.2	765.18 ± 0.13	1.047 ± 0.0086
338.15 K, x2 = 0.3008	765.264 ± 0.13	1.012 ± 0.0084
338.15 K, x2 = 0.4	765.355 ± 0.14	0.9794 ± 0.0082
338.15 K, x2 = 0.5002	765.452 ± 0.14	0.9497 ± 0.0081
338.15 K, x2 = 0.5999	765.551 ± 0.14	0.9246 ± 0.0079
338.15 K, x2 = 0.7004	765.654 ± 0.14	0.9053 ± 0.0078
338.15 K, x2 = 0.8007	765.765 ± 0.14	0.8922 ± 0.0078
338.15 K, x2 = 0.9005	765.89 ± 0.15	0.8861 ± 0.0078
343.15 K, x2 = 0.1009	760.581 ± 0.13	0.9613 ± 0.008
343.15 K, x2 = 0.2	760.585 ± 0.13	0.9301 ± 0.0079
343.15 K, x2 = 0.3008	760.608 ± 0.14	0.8988 ± 0.0077
343.15 K, x2 = 0.4	760.64 ± 0.14	0.8691 ± 0.0075
343.15 K, x2 = 0.5002	760.676 ± 0.14	0.8429 ± 0.0074
343.15 K, x2 = 0.5999	760.714 ± 0.14	0.8207 ± 0.0073
343.15 K, x2 = 0.7004	760.754 ± 0.14	0.8035 ± 0.0072
343.15 K, x2 = 0.8007	760.802 ± 0.15	0.7921 ± 0.0072
343.15 K, x2 = 0.9005	760.867 ± 0.15	0.7862 ± 0.0072
